Measurements as given in patent publication US7659366B2, “Peptide with putative role in cytoskeletal protection” (priority 2005, dated 2010).
Numbered stars: 1 amine (or outer) side, 2 acyl side, 3 side chain; on linkers, the order of the positions; unused ones are H or OH. Bridge positions count the residues as written; N and C are the ends. Square brackets hold non-standard residues; d marks the D form. Peptide text beside a SMILES is read from it. Trp(2-yl) = O=C([C@H](Cc1c([*:3])[nH]c2ccccc12)N[*:1])[*:2]; Leu(4R-OH,5-OH) = C[C@](O)(CO)C[C@H](N)C(=O)O; cisHyp = O=C(O)[C@@H]1C[C@H](O)CN1

Molecular target: T1, G-actin (pyrene-labeled) (Oryctolagus cuniculus, UniProt P68135)
T1 construct: purchased Cytoskeleton, Inc., Colorado
Assay: In vitro polymerization of pyrene-labeled G-actin
Assay type: biochemical
Settings: buffer G with 1 mM MgCl2; conjugate 50 μg/ml, phalloidin 4 μM
Experimental: In vitro polymerization of G-actin was performed according to the method of Maul and coworkers (Maul et al., 2003).
This in vitro assay is based on the enhanced fluorescence of pyrene-conjugated actin that occurs during polymerization in vitro.
For conducting the polymerization assay, general actin buffer containing pyrene actin and ATP was added to the wells. Then polymerization buffer, samples (P34 free peptide, P33 free peptide, P34BSA and P33BSA), and phalloidin (as positive control) were added to the wells. Then fluorescence intensity was read with a spectrophotometer (Excitation: 360 nm; Emission: 410 nm). The reading was done for 15 minutes with intervals of 30 seconds.
For the assay to determine inhibition of polymerization, all the wells contained polymerization buffer to initiate polymerization. […]
As mentioned above, in vitro polymerization of G-actin was performed according to the method of Maul and coworkers (Maul et al., 2003). […] 5 μl samples were applied on a microscope slide, and examined by fluorescence microscopy.
P34BSA was tested for the capacity to inhibit or induce actin polymerization. […] The fluorescence intensity of the mixture was read with a microplate fluorescence reader (FL600, Bio-Tek®; Ex. 360 nm, +/−20 nm bandwidth; Em. 410 nm, +/−10 nm bandwidth). The emissions were recorded for 15 min at 30 sec intervals. […]

## C[C@@H]1NC(=O)[C@H](C[C@@](C)(O)CO)NC(=O)[C@@H]2Cc3c([nH]c4ccccc34)SC[C@H](NC(=O)[C@@H]([C@H](C)O)NC1=O)C(=O)N1C[C@@H](O)C[C@H]1C(=O)N[C@@H](C)C(=O)N2 [phalloidin] (cyclo(A[dT]C[cisHyp]A[Trp(2-yl)][Leu(4R-OH,5-OH)]); thioether 3-6)
  induction of actin polymerization: able to promote polymerization
